# Read-outs that look alike come from different tables or passages of the source.
# Assays:
# Serotonin 5-HT6 = Serotonin 5-HT6 (Homo sapiens, UniProt P50406); experiment: radioligand binding assay, Serotonin 5-HT6
# tachykinin NK2 = tachykinin NK2 (Homo sapiens, UniProt P21452); experiment: radioligand binding assay, tachykinin NK2
# Opiate μ = Opiate μ (Homo sapiens, UniProt P35372); experiment: radioligand binding assay, Opiate μ
# Description: (§1) Routine radioligand binding assays were performed using reference standards according to established methodology. IC50 values were determined by a non-linear least square regression analysis.
# adrenergic β2 = adrenergic β2 (Homo sapiens, UniProt P07550); experiment: radioligand binding assay, adrenergic β2
# Description: as §1
# Serotonin 5-HT1B = Serotonin 5-HT1B (Homo sapiens, UniProt P28222); experiment: radioligand binding assay, Serotonin 5-HT1B
# Serotonin 5-HT1B, sequence (P28222 whole entry): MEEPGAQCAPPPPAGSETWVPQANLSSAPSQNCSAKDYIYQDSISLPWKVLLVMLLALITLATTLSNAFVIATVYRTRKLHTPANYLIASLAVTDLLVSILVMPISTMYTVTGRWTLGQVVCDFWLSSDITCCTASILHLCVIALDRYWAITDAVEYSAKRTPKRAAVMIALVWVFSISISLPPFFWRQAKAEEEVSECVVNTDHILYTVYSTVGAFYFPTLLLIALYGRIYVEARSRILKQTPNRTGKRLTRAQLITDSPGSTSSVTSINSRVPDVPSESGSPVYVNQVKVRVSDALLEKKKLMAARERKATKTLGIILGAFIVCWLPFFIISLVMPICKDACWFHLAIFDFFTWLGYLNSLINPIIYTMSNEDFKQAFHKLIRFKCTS
# Dopamine D2S = Dopamine D2S (Homo sapiens, UniProt P14416); experiment: radioligand binding assay, Dopamine D2S
# Description: as §1
# muscarinic M4 = muscarinic M4 (Homo sapiens, UniProt P08173); experiment: radioligand binding assay, muscarinic M4
# muscarinic M4, sequence (P08173 whole entry): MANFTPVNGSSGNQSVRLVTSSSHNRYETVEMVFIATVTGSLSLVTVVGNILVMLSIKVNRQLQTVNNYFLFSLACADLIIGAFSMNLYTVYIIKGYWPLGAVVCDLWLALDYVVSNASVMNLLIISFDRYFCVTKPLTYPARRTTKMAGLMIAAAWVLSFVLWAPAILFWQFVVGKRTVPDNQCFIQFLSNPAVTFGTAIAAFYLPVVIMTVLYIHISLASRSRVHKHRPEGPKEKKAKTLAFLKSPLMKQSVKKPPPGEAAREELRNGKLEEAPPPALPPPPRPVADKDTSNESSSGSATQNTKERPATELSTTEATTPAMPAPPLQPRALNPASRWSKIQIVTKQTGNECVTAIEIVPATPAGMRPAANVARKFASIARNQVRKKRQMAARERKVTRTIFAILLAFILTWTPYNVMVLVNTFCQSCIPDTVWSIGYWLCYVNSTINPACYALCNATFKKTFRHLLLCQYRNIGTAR
# Adrenergic α2A = Adrenergic α2A (Homo sapiens, UniProt P08913); experiment: radioligand binding assay, Adrenergic α2A
# Description: as §1
# Serotonin 5-HT2A = Serotonin 5-HT2A (Homo sapiens, UniProt P28223); experiment: radioligand binding assay, Serotonin 5-HT2A
# Description: as §1
# [1] = target: calcitonin gene related peptide (CGRP) (Homo sapiens, UniProt O60894+Q16602); experiment: radioligand binding assay, CGRP
# calcitonin gene related peptide (CGRP), sequence (Q16602 23-461): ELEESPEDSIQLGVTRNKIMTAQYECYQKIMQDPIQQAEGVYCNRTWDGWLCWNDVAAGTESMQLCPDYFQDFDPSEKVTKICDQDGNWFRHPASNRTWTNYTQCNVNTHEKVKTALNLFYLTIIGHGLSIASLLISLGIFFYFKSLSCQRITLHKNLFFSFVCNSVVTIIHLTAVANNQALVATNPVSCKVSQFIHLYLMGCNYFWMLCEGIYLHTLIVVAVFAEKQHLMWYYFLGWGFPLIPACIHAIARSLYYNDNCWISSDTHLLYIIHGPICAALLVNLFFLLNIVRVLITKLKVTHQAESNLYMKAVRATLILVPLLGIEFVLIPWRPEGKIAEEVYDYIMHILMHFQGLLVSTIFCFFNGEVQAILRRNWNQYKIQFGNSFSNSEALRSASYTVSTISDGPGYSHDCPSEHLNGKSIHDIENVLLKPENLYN
# calcitonin gene related peptide (CGRP), sequence (O60894 27-148 partner): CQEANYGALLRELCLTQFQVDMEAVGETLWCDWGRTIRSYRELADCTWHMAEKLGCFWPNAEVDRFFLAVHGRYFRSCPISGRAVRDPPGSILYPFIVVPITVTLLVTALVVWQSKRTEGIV
# Adrenergic α2B = Adrenergic α2B (Homo sapiens, UniProt P18089); experiment: radioligand binding assay, Adrenergic α2B
# Description: as §1
# Serotonin 5-HT2 = experiment: radioligand binding assay, Serotonin 5-HT2
# adrenergic β1 = adrenergic β1 (Homo sapiens, UniProt P08588); experiment: radioligand binding assay, adrenergic β1
# adrenergic β1, sequence (P08588 whole entry): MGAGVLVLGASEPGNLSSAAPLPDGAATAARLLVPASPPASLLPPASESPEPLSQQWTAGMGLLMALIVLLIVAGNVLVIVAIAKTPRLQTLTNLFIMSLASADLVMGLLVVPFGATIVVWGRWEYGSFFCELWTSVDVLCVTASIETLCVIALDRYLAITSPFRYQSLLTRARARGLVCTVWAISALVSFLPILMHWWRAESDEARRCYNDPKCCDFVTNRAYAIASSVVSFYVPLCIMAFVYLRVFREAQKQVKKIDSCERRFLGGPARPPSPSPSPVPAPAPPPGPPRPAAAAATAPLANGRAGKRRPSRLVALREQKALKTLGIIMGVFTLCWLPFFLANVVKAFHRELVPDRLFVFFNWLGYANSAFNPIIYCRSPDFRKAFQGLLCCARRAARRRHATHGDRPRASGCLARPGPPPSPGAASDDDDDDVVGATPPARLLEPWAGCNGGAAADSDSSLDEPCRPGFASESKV
# Description: as §1
# dopamine D4.4 = dopamine D4.4 (Homo sapiens, UniProt P21917); experiment: radioligand binding assay, dopamine D4.4
# dopamine D4.4, sequence (P21917 whole entry): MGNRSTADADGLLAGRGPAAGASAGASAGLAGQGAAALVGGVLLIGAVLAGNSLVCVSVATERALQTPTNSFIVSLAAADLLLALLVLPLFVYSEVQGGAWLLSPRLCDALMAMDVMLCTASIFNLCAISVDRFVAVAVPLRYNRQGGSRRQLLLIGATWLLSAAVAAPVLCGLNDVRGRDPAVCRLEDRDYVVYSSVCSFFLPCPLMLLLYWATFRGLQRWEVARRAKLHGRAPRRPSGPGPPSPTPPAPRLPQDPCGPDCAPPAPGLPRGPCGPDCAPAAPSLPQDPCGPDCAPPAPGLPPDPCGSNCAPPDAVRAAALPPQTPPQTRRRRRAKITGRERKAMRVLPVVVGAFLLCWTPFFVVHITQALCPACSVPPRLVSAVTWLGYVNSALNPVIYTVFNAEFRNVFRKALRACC
# Description: as §1
# adrenergic β3 = adrenergic β3 (Homo sapiens, UniProt P13945); experiment: radioligand binding assay, adrenergic β3
# adrenergic β3, sequence (P13945 whole entry): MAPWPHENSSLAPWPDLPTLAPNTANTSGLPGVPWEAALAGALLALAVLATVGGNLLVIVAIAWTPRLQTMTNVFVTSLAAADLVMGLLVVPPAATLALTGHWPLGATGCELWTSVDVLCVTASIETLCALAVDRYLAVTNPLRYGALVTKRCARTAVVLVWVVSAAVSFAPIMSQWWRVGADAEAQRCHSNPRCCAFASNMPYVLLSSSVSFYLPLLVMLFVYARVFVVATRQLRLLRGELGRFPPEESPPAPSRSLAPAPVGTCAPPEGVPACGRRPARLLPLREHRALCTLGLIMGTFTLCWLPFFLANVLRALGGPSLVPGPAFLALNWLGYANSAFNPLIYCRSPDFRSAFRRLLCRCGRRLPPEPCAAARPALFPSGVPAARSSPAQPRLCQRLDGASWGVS
# Description: as §1
# nitric oxide synthetase = experiment: activity of nitric oxide synthetase; type: biochemical
# [2] = target: gamma aminobutyric acid GABAB (Homo sapiens, UniProt Q9UBS5); experiment: radioligand binding assay, GABAB
# muscarinic M5 = muscarinic M5 (Homo sapiens, UniProt P08912); experiment: radioligand binding assay, muscarinic M5
# muscarinic M5, sequence (P08912 whole entry): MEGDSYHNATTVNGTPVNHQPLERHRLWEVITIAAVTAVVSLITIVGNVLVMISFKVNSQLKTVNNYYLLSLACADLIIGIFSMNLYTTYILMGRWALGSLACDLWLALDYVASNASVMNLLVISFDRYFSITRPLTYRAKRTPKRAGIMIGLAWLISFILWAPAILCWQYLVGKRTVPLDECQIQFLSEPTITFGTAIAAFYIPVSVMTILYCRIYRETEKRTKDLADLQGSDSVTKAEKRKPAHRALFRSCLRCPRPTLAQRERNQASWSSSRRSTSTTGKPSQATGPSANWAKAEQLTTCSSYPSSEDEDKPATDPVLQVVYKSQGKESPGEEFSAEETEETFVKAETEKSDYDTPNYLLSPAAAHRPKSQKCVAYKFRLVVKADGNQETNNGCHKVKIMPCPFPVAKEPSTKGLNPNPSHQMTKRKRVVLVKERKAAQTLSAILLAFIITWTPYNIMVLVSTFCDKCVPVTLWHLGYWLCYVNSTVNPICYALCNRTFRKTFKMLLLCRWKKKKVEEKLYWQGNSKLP
# muscarinic M1 = muscarinic M1 (Homo sapiens, UniProt P11229); experiment: radioligand binding assay, muscarinic M1
# Description: as §1
# nicotinic = experiment: radioligand binding assay, nicotinic
# muscarinic M3 = muscarinic M3 (Homo sapiens, UniProt P20309); experiment: radioligand binding assay, muscarinic M3
# Description: as §1
# Serotonin 5-HT1A = Serotonin 5-HT1A (Homo sapiens, UniProt P08908); experiment: radioligand binding assay, Serotonin 5-HT1A
# Description: as §1
# dopamine D4.2 = experiment: radioligand binding assay, dopamine D4.2
# Description: as §1
# tachykinin NK1 = tachykinin NK1 (Homo sapiens, UniProt P25103); experiment: radioligand binding assay, tachykinin NK1
# tachykinin NK1, sequence (P25103 whole entry): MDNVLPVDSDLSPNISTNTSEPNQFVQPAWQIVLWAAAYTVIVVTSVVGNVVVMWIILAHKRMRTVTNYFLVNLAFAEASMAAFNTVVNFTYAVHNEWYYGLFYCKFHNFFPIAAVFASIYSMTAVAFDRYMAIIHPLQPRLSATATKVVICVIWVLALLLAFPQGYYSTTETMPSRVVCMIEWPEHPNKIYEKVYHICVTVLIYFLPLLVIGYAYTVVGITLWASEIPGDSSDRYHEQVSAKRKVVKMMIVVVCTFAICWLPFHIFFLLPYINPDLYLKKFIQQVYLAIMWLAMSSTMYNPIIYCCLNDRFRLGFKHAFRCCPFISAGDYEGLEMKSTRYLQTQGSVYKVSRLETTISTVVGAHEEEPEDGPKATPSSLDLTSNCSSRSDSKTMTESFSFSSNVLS
# neuropeptide Y NPY1 = neuropeptide Y NPY1 (Homo sapiens, UniProt P25929); experiment: radioligand binding assay, neuropeptide Y NPY1
# neuropeptide Y NPY1, sequence (P25929 whole entry): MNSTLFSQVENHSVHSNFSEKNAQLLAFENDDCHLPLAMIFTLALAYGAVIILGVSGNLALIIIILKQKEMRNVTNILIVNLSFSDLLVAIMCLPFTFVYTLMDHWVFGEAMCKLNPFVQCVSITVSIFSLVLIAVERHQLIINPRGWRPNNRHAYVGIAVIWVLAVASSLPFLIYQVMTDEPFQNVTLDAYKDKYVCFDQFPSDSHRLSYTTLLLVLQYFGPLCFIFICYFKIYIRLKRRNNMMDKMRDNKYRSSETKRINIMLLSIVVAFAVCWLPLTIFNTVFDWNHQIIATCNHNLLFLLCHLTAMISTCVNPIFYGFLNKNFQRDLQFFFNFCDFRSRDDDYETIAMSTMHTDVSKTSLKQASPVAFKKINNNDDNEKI
# Description: as §1
# dopamine D4.7 = experiment: radioligand binding assay, dopamine D4.7
# Description: as §1
# serotonin 5-HT4 = serotonin 5-HT4 (Homo sapiens, UniProt Q13639); experiment: radioligand binding assay, serotonin 5-HT4
# serotonin 5-HT4, sequence (Q13639 whole entry): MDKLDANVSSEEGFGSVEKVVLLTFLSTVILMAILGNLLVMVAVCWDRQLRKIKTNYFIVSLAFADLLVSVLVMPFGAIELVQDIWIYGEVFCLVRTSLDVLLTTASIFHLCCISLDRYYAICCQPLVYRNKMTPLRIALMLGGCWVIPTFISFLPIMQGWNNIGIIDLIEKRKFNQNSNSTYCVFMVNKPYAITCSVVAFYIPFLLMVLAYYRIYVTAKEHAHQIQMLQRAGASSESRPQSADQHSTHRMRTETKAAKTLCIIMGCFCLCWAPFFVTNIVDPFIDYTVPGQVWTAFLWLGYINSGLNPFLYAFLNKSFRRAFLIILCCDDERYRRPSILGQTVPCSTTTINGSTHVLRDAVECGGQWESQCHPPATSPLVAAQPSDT
# Serotonin 5-HT7 = Serotonin 5-HT7 (Homo sapiens, UniProt P34969); experiment: radioligand binding assay, Serotonin 5-HT7
# Description: as §1
# muscarinic M2 = muscarinic M2 (Homo sapiens, UniProt P08172); experiment: radioligand binding assay, muscarinic M2
# Description: as §1
# [3] = target: vasoactive intestinal peptide (VIP1) (Homo sapiens, UniProt P32241); experiment: radioligand binding assay, VIP1
# Adrenergic α1A = Adrenergic α1A (Homo sapiens, UniProt P35348); experiment: radioligand binding assay, Adrenergic α1A
# Description: as §1
# Dopamine D3 = Dopamine D3 (Homo sapiens, UniProt P35462); experiment: radioligand binding assay, Dopamine D3
# Description: as §1
# [4] = test system: gamma aminobutyric acid GABAA; experiment: radioligand binding assay, GABAA
# tachykinin NK3 = tachykinin NK3 (Homo sapiens, UniProt P29371); experiment: radioligand binding assay, tachykinin NK3
# tachykinin NK3, sequence (P29371 whole entry): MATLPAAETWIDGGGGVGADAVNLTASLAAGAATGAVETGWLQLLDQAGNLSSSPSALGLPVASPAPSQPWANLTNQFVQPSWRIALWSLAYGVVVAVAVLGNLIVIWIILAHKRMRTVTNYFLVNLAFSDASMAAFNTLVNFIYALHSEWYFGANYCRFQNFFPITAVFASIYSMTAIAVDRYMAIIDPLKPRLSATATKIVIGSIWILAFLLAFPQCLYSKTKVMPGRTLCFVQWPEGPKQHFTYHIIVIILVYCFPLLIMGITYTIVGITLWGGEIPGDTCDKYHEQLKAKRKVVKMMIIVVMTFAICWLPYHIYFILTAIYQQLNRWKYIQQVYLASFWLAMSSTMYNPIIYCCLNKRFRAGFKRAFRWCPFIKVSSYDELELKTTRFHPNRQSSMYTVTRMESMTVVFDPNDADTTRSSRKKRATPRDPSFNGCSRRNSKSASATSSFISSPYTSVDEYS
# neuropeptide Y NPY2 = neuropeptide Y NPY2 (Homo sapiens, UniProt P49146); experiment: radioligand binding assay, neuropeptide Y NPY2
# Description: as §1
# opiate δ = opiate δ (Homo sapiens, UniProt P41143); experiment: radioligand binding assay, opiate δ
# Description: as §1
# Serotonin 5-HT1D = Serotonin 5-HT1D (Homo sapiens, UniProt P28221); experiment: radioligand binding assay, Serotonin 5-HT1D
# Description: as §1
# Adrenergic α1B = Adrenergic α1B (Homo sapiens, UniProt P35368); experiment: radioligand binding assay, Adrenergic α1B
# opiate κ = opiate κ (Homo sapiens, UniProt P41145); experiment: radioligand binding assay, opiate κ
# Description: as §1
# Adrenergic α2C = Adrenergic α2C (Homo sapiens, UniProt P18825); experiment: biochemical
# Description: as §1
SMILES,Ki (Serotonin 5-HT6),binding activity (tachykinin NK2),binding activity (adrenergic β2),Ki (Serotonin 5-HT1B),binding activity (muscarinic M4),binding activity [1],binding activity (adrenergic β1),binding activity (dopamine D4.4),binding activity (adrenergic β3),effect on the activity of nitric oxide synthetase (nitric oxide synthetase),binding activity [2],binding activity (muscarinic M5),binding activity (nicotinic),binding activity (muscarinic M3),binding activity (dopamine D4.2),binding activity (tachykinin NK1),binding activity (neuropeptide Y NPY1),binding activity (dopamine D4.7),binding activity (serotonin 5-HT4),binding activity (muscarinic M2),other results
"Oc1ccc2c(c1O)-c1cccc3c1C(C2)NCC3 (stereo not shown) [Norapomorphine, norapomorphine]",1670 nM,did not bind significantly,did not bind significantly,3560 nM,did not bind significantly,did not bind significantly,did not bind significantly,did not bind significantly,did not bind significantly,neither apomorphine nor its metabolite norapomorphine demonstrated any significant effect,did not bind significantly,did not bind significantly,did not bind significantly,did not bind significantly,did not bind significantly,did not bind significantly,did not bind significantly,did not bind significantly,did not bind significantly,did not bind significantly,"Ki (Opiate μ): 2090 nM; Ki (Dopamine D2S): 1100 nM; Ki (Adrenergic α2A; Adrenergic α2A, read-out: Ki): 1430 nM; Ki (Serotonin 5-HT2A; Serotonin 5-HT2A, read-out: Ki): 1120 nM; Ki (Adrenergic α2B): 213 nM; Ki (Serotonin 5-HT2): N/S (N/S = no significant activity (≧50% at 10 μM)); binding activity (muscarinic M1): did not bind significantly; Ki (Serotonin 5-HT1A): 439 nM; Ki (Serotonin 5-HT7; Serotonin 5-HT7, read-out: Ki): 1380 nM; binding activity [3]: did not bind significantly; Ki (Adrenergic α1A): 4170 nM; Ki (Dopamine D3): 117 nM; binding activity [4]: did not bind significantly; binding activity (tachykinin NK3): did not bind significantly; binding activity (neuropeptide Y NPY2): did not bind significantly"
"CN1CCc2cccc3c2[C@H]1Cc1ccc(O)c(O)c1-3 [Apomorphine, (R)-5,6,6a,7-tetrahydro-6-methyl-4H-dibenzo-[de,g]quinoline-10,11-diol]",206 nM,No significant binding activity,No significant binding activity,205 nM,No significant binding activity,No significant binding activity,No significant binding activity,No significant binding activity,No significant binding activity,neither apomorphine nor its metabolite norapomorphine demonstrated any significant effect,No significant binding activity,No significant binding activity,No significant binding activity,No significant binding activity,No significant binding activity,No significant binding activity,No significant binding activity,No significant binding activity,No significant binding activity,No significant binding activity,binding activity (Opiate μ): No significant binding activity; binding activity (opiate δ): No significant binding activity; Ki (Serotonin 5-HT1D): 288 nM; Ki (Adrenergic α2A): 71 nM; Ki (Serotonin 5-HT2A): 27 nM; Ki (Serotonin 5-HT2; read-out: Ki): 111 nM; Ki (Adrenergic α1B): 882 nM; binding activity (opiate κ): No significant binding activity; Ki (Serotonin 5-HT7): 65 nM; binding activity [3]: No significant binding activity; Ki (Adrenergic α1A): 343 nM; binding activity [4]: No significant binding activity; Ki (Adrenergic α2C): 19 nM; binding activity (tachykinin NK3): No significant binding activity; binding activity (neuropeptide Y NPY2): No significant binding activity

# Reference: patent publication US6506765B2 (TAP Pharmaceutical Products, Inc., priority 2000, dated 2003)
